For seven molecules, TGI results are on record in PubChem BioAssay (NCI).

Test systems include SF-295 CNS; T-47D breast; A549 NSCLC; BT-549 breast; HCT-15 colon; MDA-N; DU-145 prostate; CAKI-1 renal; HS 578T breast; K-562 leukemia; SF-539 CNS; SNB-75 CNS; SR leukemia; OVCAR-5 ovarian; MDA-MB-435; HOP-62 NSCLC; NCI-H226 lung; NCI-H522 lung; NCI-H460 lung; MALME-3M melanoma.
Common to all, as to test: DTP human tumour cell line panel, 48 h

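Following 48 hours of exposure in 96-well plates, responses at five concentrations were used to interpolate endpoints linearly. TGI denotes the concentration required for complete inhibition of growth.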

Regarding `CCOC(=O)C1=CNC(C(=O)OCC)C1c1cccn1-c1ccccc1` (stereo not drawn), the TGI is 74.5 µM with SF-295 CNS; above 100 µM in the experiment with T-47D breast; above 100 µM in the experiment with A549 NSCLC; above 100 µM in the experiment on BT-549 breast; above 100 µM with HCT-15 colon; 57.4 µM in the experiment with MDA-N. The TGI was above 100 µM in the experiment on DU-145 prostate; above 100 µM in the experiment with CAKI-1 renal; above 100 µM in the experiment with HS 578T breast; above 100 µM with K-562 leukemia; 47.1 µM in the experiment with SF-539 CNS; 65.4 µM with SNB-75 CNS. The TGI was 55.3 µM in the experiment with SR leukemia; above 100 µM in the experiment on OVCAR-5 ovarian; 57.6 µM with MDA-MB-435; above 100 µM in the experiment with HOP-62 NSCLC; 54.2 µM in the experiment with NCI-H226 lung; 59.1 µM with NCI-H522 lung. Further, the TGI with NCI-H460 lung is above 100 µM.
Regarding `O=C1CCSc2nc(-c3ccc4c(c3)OCO4)nn21`, the TGI in the experiment with SF-295 CNS, in the experiment with T-47D breast, in the experiment with A549 NSCLC, in the experiment with BT-549 breast, in the experiment with HCT-15 colon and with MDA-N was above 10 µM in each case. For the same molecule, the TGI with DU-145 prostate, with MALME-3M melanoma, with CAKI-1 renal, in the experiment on HS 578T breast, with K-562 leukemia and with SF-539 CNS was above 10 µM in each case. Moreover, the TGI in the experiment with SNB-75 CNS, in the experiment with SR leukemia, in the experiment with OVCAR-5 ovarian, with MDA-MB-435, with HOP-62 NSCLC and in the experiment with NCI-H226 lung was above 10 µM each time. The TGI in the experiment with NCI-H522 lung and with NCI-H460 lung was above 10 µM throughout.
For `CSC1=C(C#N)C(=O)N(c2ccc(C)cc2)C(=O)C1C#N` (stereo not drawn), the concentration for total growth inhibition (TGI) in the experiment with SF-295 CNS, with T-47D breast, with A549 NSCLC, in the experiment with BT-549 breast, with HCT-15 colon and in the experiment on MDA-N was above 100 µM in each case. Also, the total growth inhibition concentration (TGI) in the experiment on DU-145 prostate, in the experiment with MALME-3M melanoma, in the experiment with CAKI-1 renal, in the experiment with HS 578T breast, with K-562 leukemia and in the experiment on SF-539 CNS was above 100 µM each time. The total growth inhibition concentration (TGI) with SR leukemia, in the experiment on OVCAR-5 ovarian, in the experiment with MDA-MB-435, in the experiment on HOP-62 NSCLC, with NCI-H226 lung and with NCI-H522 lung was above 100 µM in each case. The concentration for total growth inhibition (TGI) in the experiment with NCI-H460 lung was above 100 µM.
Regarding `CC(C)CC(NC=O)C(=O)NC(Cc1ccccc1)NC(=O)CNC(=O)C(C)NC(=O)C(N)Cc1ccc(O)cc1` (stereo not drawn), the TGI in the experiment on SF-295 CNS, in the experiment with T-47D breast, with A549 NSCLC, in the experiment with BT-549 breast, in the experiment with HCT-15 colon and in the experiment on MDA-N was above 100 µM throughout. Further, the TGI in the experiment on DU-145 prostate, in the experiment on CAKI-1 renal, with HS 578T breast, in the experiment on K-562 leukemia, in the experiment on SF-539 CNS and in the experiment on SNB-75 CNS was above 100 µM throughout. The total growth inhibition concentration (TGI) in the experiment with SR leukemia, in the experiment with OVCAR-5 ovarian, with MDA-MB-435, in the experiment on HOP-62 NSCLC, in the experiment on NCI-H226 lung and with NCI-H522 lung was above 100 µM in each case. For the same molecule, the concentration for total growth inhibition (TGI) in the experiment on NCI-H460 lung was above 100 µM.
For the molecule `CCc1ccc(Nc2cc(=O)n(C)c(SCc3ccccc3)n2)cc1`, the TGI with SF-295 CNS, with T-47D breast, in the experiment with A549 NSCLC, in the experiment with BT-549 breast, in the experiment on HCT-15 colon and in the experiment on MDA-N was above 100 µM in each case. Moreover, the total growth inhibition concentration (TGI) in the experiment with DU-145 prostate, in the experiment on MALME-3M melanoma, with CAKI-1 renal, in the experiment with HS 578T breast, in the experiment on K-562 leukemia and in the experiment with SF-539 CNS was above 100 µM in each case. For the same molecule, the concentration for total growth inhibition (TGI) with SNB-75 CNS, with SR leukemia, with OVCAR-5 ovarian, in the experiment with MDA-MB-435, in the experiment on HOP-62 NSCLC and in the experiment with NCI-H226 lung was above 100 µM each time. In the experiment on NCI-H522 lung, this molecule yielded a total growth inhibition concentration (TGI) above 100 µM.
For `CN1C(C)(C)CC(=O)C(Br)C1(C)C` (stereo not drawn), the concentration for total growth inhibition (TGI) in the experiment on SF-295 CNS, in the experiment with T-47D breast, with A549 NSCLC, with BT-549 breast, in the experiment on HCT-15 colon and with MDA-N was above 100 µM throughout. For the same molecule, the TGI in the experiment on DU-145 prostate, in the experiment with MALME-3M melanoma, in the experiment with CAKI-1 renal, in the experiment on HS 578T breast, in the experiment on K-562 leukemia and in the experiment on SNB-75 CNS was above 100 µM throughout. In addition, the TGI with SR leukemia, in the experiment with OVCAR-5 ovarian, with MDA-MB-435, with HOP-62 NSCLC, in the experiment on NCI-H226 lung and in the experiment with NCI-H522 lung was above 100 µM each time. The TGI with NCI-H460 lung is above 100 µM.
Take `CN1CC=C(c2cccn2C)CC1`: the TGI in the experiment with SF-295 CNS, with T-47D breast, in the experiment on A549 NSCLC, in the experiment with BT-549 breast, in the experiment on HCT-15 colon and in the experiment with MDA-N was above 100 µM throughout. The TGI with DU-145 prostate, in the experiment with MALME-3M melanoma, in the experiment with CAKI-1 renal, in the experiment on HS 578T breast, with K-562 leukemia and with SNB-75 CNS was above 100 µM throughout. The TGI in the experiment with SR leukemia, in the experiment with OVCAR-5 ovarian, with MDA-MB-435, in the experiment on HOP-62 NSCLC, in the experiment on NCI-H226 lung and in the experiment on NCI-H522 lung was above 100 µM throughout.
